In general, EC50 refers to the midpoint of the concentration-response curve. The Kd is the equilibrium constant for the complex coming apart.

The text below walks through data of PMC4862170, “Genomic screens identify a new phytobacterial microbe-associated molecular pattern and the cognate Arabidopsis receptor-like kinase that mediates its immune elicitation” (Genome Biology, 2016).

Where no end group is shown, it is not given here.

In this test the target is T1, XPS1 ectodomain (Arabidopsis thaliana, UniProt Q9SD62).
T1 construct: The extracellular domain of XPS1 (amino acids 36-650) was cloned by ligation independent cloning; made in house; host or cells: Hi5 insect cells, baculovirus (pMelBac B)
T1 sequence (Q9SD62 36-650): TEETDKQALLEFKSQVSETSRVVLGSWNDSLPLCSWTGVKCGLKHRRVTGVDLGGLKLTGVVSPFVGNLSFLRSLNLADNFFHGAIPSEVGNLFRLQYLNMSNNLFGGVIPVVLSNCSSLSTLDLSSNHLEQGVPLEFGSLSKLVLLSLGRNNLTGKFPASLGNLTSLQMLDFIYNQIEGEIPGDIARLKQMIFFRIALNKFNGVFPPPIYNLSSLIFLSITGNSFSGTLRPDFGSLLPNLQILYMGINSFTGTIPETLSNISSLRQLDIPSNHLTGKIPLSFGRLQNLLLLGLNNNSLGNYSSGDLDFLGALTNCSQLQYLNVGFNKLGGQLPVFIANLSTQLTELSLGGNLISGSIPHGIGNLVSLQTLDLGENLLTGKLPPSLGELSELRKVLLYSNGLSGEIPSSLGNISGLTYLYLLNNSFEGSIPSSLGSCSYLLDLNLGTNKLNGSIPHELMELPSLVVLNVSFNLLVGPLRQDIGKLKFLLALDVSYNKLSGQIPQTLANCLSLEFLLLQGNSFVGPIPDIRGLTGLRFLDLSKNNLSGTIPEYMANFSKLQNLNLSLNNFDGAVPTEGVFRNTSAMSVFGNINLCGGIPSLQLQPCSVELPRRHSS
As to the kind of experiment: biochemical. It counts as binding. On the procedure: For XPS1 expression in Hi5 cells, the ectodomain of XPS1 (36-650) was inserted into the baculovirus transfer vector pMelBac B (Invitrogen). The extracellular domain of XPS1 (amino acids 36-650) was cloned by ligation independent cloning between the existing Honey bee melettin signal sequence and the C-terminal Strep II-9x His tag. […] The StrepII-9x His fused XPS1 ectodomain was produced by secreted expression in baculovirus-infected insect cells, harvested 72 h post infection and purified by Ni-NTA affinity chromatography (Qiagen). The samples were processed twice with a Superdex 200 16/60 column (GE Healthcare) pre-equilibrated with 10 mM Bis-Tris pH 6.0, 150 mM NaCl. Protein purity was checked by SDS-PAGE.
The XPS1 ectodomain was kept at a constant concentration (0.5 μM) in a buffer containing 10 mM Bis-Tris pH6, 150 mM NaCl, 5 % glycerol and 0.01 % Tween, whereas varying peptide concentrations were added. Approximately 4–6 μL of each sample was loaded in a fused silica capillary (NanoTemper Technologies). Measurements were performed at room temperature in a Monolith NT.label free instrument at a constant LED power of 20 and MST power of 60 %. Measurements were performed repeatedly on two independent protein preparations to ensure reproducibility. […] Curve fitting was performed by using the NT affinity analysis software from Nanotemper.

Take LIPEGKVAVTTTQAATERKPLEQPR [xup25]: the “Apparent EC50 range of XPS1 for peptide” value is on record as “in the high nM range”, the EC50 is 0.381 µM and the “Overall KD of XPS1 binding” value is “not able to calculate an accurate overall KD”.
Consider “QRLSTGSRINSAKDDAAGLQIA [flg22, reference compound]”, for which the “EC50 of binding to XPS1 ECD” value (additional replicate (Figure S7), XPS1 ECD 0.5 μM, pH6, MST power 60 %, NT affinity analysis) is “could not be fitted using the EC50 fit”. Where the note is “read-out: KD of binding to XPS1 ECD”, the Kd worked out at 13.1 µM.
